Counter-ions that a name gives are not always drawn.

One test in a line: Anoxia-induced lethality test in mice (survival in 100% nitrogen). The test is classed as in vivo, Male, CD-1 mice. The conditions noted are these: Mus musculus, ip, 30 minutes prior to testing; 100% nitrogen for 80 seconds; read-out: ED50, protected from anoxia-induced lethality in mice. The source says:
To test the protective ability of the compounds of formula I against the physical consequences of anoxia, mice were exposed to an atmosphere of pure nitrogen which killed all of the animals. Intraperitoneal pretreatment of mice with the compounds of formula I protected them against this lethal effect.
ANOXIA-INDUCED LETHALITY TEST IN MICE
The anoxia-induced lethality test in mice evaluates the activity of drugs which protect the animal from deleterious effects of oxygen-lack, such as occurs in conditions of cerebral ischemia. Activity is measured as the survival rate in mice exposed to 100% nitrogen for 80 seconds, a procedure which is lethal to […] of untreated animals.
Test compounds are dissolved in water, or suspended in 0.2% aqueous Tween 80 and are administered i.p., 30 minutes prior to testing. Several doses and a vehicle control are tested, with 8 mice receiving each dose.
Male, CD-1 mice weighing 18-20 g are used. Mice are held separately within a cage in a modified plastic, air-tight desiccator which is connected to a tank of compressed 100% nitrogen gas.
Delivery of the anoxic gas is controlled by means of a toggle valve, and exposure is terminated by rapidly removing the mice from the desiccator. All operations are timed with a stopwatch. An ED50 value is determined from the percentage of mice which survive in each group. Drugs which reduce the anoxia-induced lethality solely by lowering body temperature are excluded.
As a reminder, the ED50 is the dose at which the effect has come halfway, by size or by number of responders. As for `Cc1c2n(c3ccccc13)CCCC2N(C)C.Cl` (stereo not drawn) [Example 3, 6,7,8,9-Tetrahydro-N,N,10-trimethylpyrido[1,2-a]indole-9-amine Hydrochloride], the ED50 amounted to 13.5 mg/kg.

The test is the same for the next values; noted with them: Mus musculus, ip, read-out: ED50, protected from anoxia-induced lethality in mice.
In the case of `Cc1c2n(c3ccc(Br)cc13)CCC(C)(C)C2N1CCCC1.Cl` (stereo not drawn) [Example 17, 2-Bromo-6,7,8,9-tetrahydro-8,8,10-trimethyl-9-(1-pyrrolidinyl)pyrido[1,2-a]indole Hydrochloride], the ED50 turned out to be 50 mg/kg. With `Cc1c2n(c3ccccc13)CCCC2N1CCCCC1.Cl` (stereo not drawn) [Example 8, 6,7,8,9-Tetrahydro-10-methyl-9-(1-piperidinyl)-pyrido[1,2-a]indole Hydrochloride], the ED50 was found to be 55.7 mg/kg. For `Br.Cc1c2n(c3ccc(O)cc13)CCC(C)(C)C2N1CCCC1` (stereo not drawn) [Example 33, 6,7,8,9-Tetrahydro-2-hydroxy-8,8,10-trimethyl-9-(1-pyrrolidinyl)-pyrido[1,2-a]indole Hydrobromide], the ED50 amounted to 20 mg/kg. Still for that read-out and setting: next, `Cc1c2n(c3ccccc13)CCC(C)(C)C2N1CCCC1` (stereo not drawn) [Example 1, 6,7,8,9-Tetrahydro-8,8,10-trimethyl-9-(1-pyrrolidinyl)-pyrido[1,2,a]indole Hydrochloride]: 11.2 mg/kg; `Cc1c2n(c3ccccc13)CCCC2N1CCOCC1.Cl` (stereo not drawn) [Example 9, 6,7,8,9-Tetrahydro-10-methyl-9-(4-morpholinyl)-pyrido[1,2-a]indole Hydrochloride]: 32.4 mg/kg; `Cc1c2n(c3ccccc13)CCCC2N1CCCC1.Cl` (stereo not drawn) [Example 2, 6,7,8,9-Tetrahydro-10-methyl-9-(1-pyrrolidinyl)pyrido[1,2-a]indole Hydrochloride]: 83.3 mg/kg. For `Cc1c2n(c3ccccc13)CCC(C)(C)C2N.Cl` (stereo not drawn) [Example 29, 6,7,8,9-Tetrahydro-8,8,10-trimethylpyrido[1,2-a]indol-9-amine Hydrochloride], the ED50 came to 17.2 mg/kg. On the same count and under the same terms, next, `Cc1c2n(c3ccc(Br)cc13)CCCC2N1CCCCC1.Cl` (stereo not drawn) [Example 19, 2-Bromo-6,7,8,9-tetrahydro-10-methyl-9-(1-piperidinyl)-pyrido[1,2-a]indole Hydrochloride]: 110 mg/kg; `Cc1c2n(c3ccccc13)CCC(C)(C)C2N(C)C1CCCCC1` (stereo not drawn) [Example 32, N-Cyclohexyl-6,7,8,9-tetrahydro-N,8,8,10-tetramethylpyrido[1,2-a]indol-9-amine]: 8.8 mg/kg. The same measure, in the same setting: next, `CCC1(CC)CCn2c(c(C)c3ccccc32)C1N1CCCC1` (stereo not drawn) [Example 6, 8,8-diethyl-6,7,8,9-tetrahydro-10-methyl-9-(1-pyrolidinyl)pyrido[1,2-a]indole Hydrochloride]: 20 mg/kg; `CNC1CCCn2c1c(C)c1ccc(OC)cc12.Cl` (stereo not drawn) [Example 27, 6,7,8,9-Tetrahydro-3-methoxy-N,10-dimethylpyrido[1,2-a]indol-9-amine Hydrochloride]: 15.1 mg/kg; `Br.Cc1c2n(c3ccccc13)CCC(C)(C)C2N(C)C` (stereo not drawn) [Example 4, 6,7,8,9-Tetrahydro-N,N,8,8,10-pentamethylpyrido[1,2-a]indol-9-amine Hydrobromide]: 5 mg/kg.

As for `COc1ccc2c(C)c3n(c2c1)CCCC3N(C)C.Cl` (stereo not drawn) [Example 28, 6,7,8,9-Tetrahydro-3-methoxy-N,N,10-trimethylpyrido[1,2-a]indol-9-amine Hydrochloride], the ED50 stood at 20 mg/kg. As to `C#CCNC1CCCn2c1c(C)c1ccccc12.Cl` (stereo not drawn) [Example 7, 6,7,8,9-Tetrahydro-10-methyl-N-(2-propynyl)pyrido[1,2-a]indol-9-amine Hydrochloride], the ED50 worked out at 22 mg/kg.

The next test in a line: Passive avoidance test: prevention of scopolamine-induced memory impairment in rats. Format: in vivo, male Sprague-Dawley rats. The conditions noted are these: 30 mg/kg test compound, oral, 75 or 90 min before training; scopolamine 2 mg/kg s.c.; retention test 24 h later, 180 seconds access.
Description: In the test, a rat must remember to avoid a darkened enclosure where it had been shocked the previous day.
This passive avoidance procedure uses a test chamber divided into two compartments: a lighted compartment and a dark compartment.
The two compartments are separated by a solenoid-operated slide door. An inescapable foot shock (750 μA for two seconds) can be presented to the grid floor of the dark compartment.
On the training day, male Sprague-Dawley rats (eight animals are tested per group) are placed in the lighted compartment and given access to the adjacent dark compartment. Upon entering the dark compartment, the rat is given an inescapable foot shock. Twenty-four hours later retention (memory) is tested: the rat is placed in the lighted compartment and allowed access to the dark compartment for 180 seconds.
Compounds to be tested are dissolved in 0.9% saline or suspended in Tween 80 (0.2% v/v in saline) or methyl cellulose (0.5% w/v in distilled water). […] Appropriate vehicle and control groups are included with each experiment. Each animal is given a single training trial.
As for `Cc1c2n(c3ccccc13)CCC(C)(C)C2N1CCCC1` (stereo not drawn) [Example 1, 6,7,8,9-Tetrahydro-8,8,10-trimethyl-9-(1-pyrrolidinyl)-pyrido[1,2,a]indole Hydrochloride], the “mean entry latency on retention day” value turned out to be 152 s. Same read-out and setting: next, `Cc1c2n(c3ccccc13)CCCC2N1CCCC1.Cl` (stereo not drawn) [Example 2, 6,7,8,9-Tetrahydro-10-methyl-9-(1-pyrrolidinyl)pyrido[1,2-a]indole Hydrochloride]: 135 s.

Assay in the next test: not given
The conditions noted are these: scopolamine alone; passive avoidance; cited from earlier work.
Regarding `CN1[C@@H]2C[C@@H](OC(=O)[C@H](CO)c3ccccc3)C[C@H]1[C@@H]1O[C@@H]12` [scopolamine], the “memory effect of scopolamine (in words)” value is listed as “impairs the rat's ability to remember to avoid the darkened enclosure”.

These data come from US4624954A, “6,7,8,9-tetrahydro-10-methylpyrido[1,2-a]indol-9-amines and derivatives thereof, useful for the treatment of cognitive impairments” (American Home Products Corporation, priority 1985, dated 1986).
